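Cells were grown in 96-well plates and exposed to each compound for 48 hours at five concentrations; endpoints were interpolated linearly between bracketing concentrations, or set to the highest concentration if not reached. Here, GI50 denotes the concentration required for 50% inhibition of growth.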 Calls of active or inactive are those of the source. Cut-off read from the data, not from the text of the source: active = GI50 up to about 1.1 µM and inactive = higher.
Tests used:
Test in all cases: DTP human tumour cell line panel, 48 h
[1] = test system: A498
[2] = test system: HCT-15
[3] = test system: HOP-62
[4] = test system: M14
[5] = test system: OVCAR-5
[6] = test system: CAKI-1
[7] = test system: UACC-257
[8] = test system: LOX IMVI
[9] = test system: PC-3
[10] = test system: SNB-19
[11] = test system: RPMI-8226
[12] = test system: DU-145
[13] = test system: SK-OV-3
[14] = test system: MDA-MB-231
[15] = test system: NCI/ADR-RES
[16] = test system: HL-60
[17] = test system: EKVX
[18] = test system: BT-549
[19] = test system: SF-268
[20] = test system: SF-295
[21] = test system: COLO 205
[22] = test system: TK-10
[23] = test system: OVCAR-8
[24] = test system: UO-31
[25] = test system: Hs-578T
[26] = test system: HCC 2998
[27] = test system: SK-MEL-28
[28] = test system: MCF7
[29] = test system: Malme-3M
[30] = test system: SK-MEL-5
[31] = test system: OVCAR-4
[32] = test system: NCI-H226
[33] = test system: SN12C
[34] = test system: MOLT-4
[35] = test system: K562
[36] = test system: MDA-MB-435
[37] = test system: HCT-116
[38] = test system: SNB-75
[39] = test system: HT-29
[40] = test system: NCI-H23
[41] = test system: HOP-92
[42] = test system: MDA-N
[43] = test system: IGROV-1
[44] = test system: SF-539
[45] = test system: A549
[46] = test system: CCRF-CEM
[47] = test system: ACHN
[48] = test system: U-251
[49] = test system: 786-0
[50] = test system: UACC-62
[51] = test system: T47D
[52] = test system: SK-MEL-2
[53] = test system: OVCAR-3
[54] = test system: NCI-H460
[55] = test system: KM12
[56] = test system: SW-620
[57] = test system: RXF 393

C=C(C1=CC(=O)C(C)(C)O1)[C@@H]1CC=C([C@@H]2CC[C@H]3[C@@]2(C)CC[C@H]2C(C)(C)C(=O)[C@H](O)C[C@]32C)[C@H](O)O1 was tested, and the GI50 [1] was 5160 nM (inactive), the GI50 [2] was 2040 nM and the GI50 [3] was 3150 nM (inactive). For the same compound, the GI50 [4] was 1580 nM (inactive), the GI50 [5] was 13700 nM (inactive) and the GI50 [6] was 3890 nM (inactive). The GI50 [7] was 1970 nM (inactive), the GI50 [8] was 1810 nM (inactive) and the GI50 [9] was 1310 nM (inactive). For the same compound, the GI50 [10] was 10200 nM (inactive), the GI50 [11] was 342 nM (active) and the GI50 [12] was 1030 nM (active). The GI50 [13] was 14600 nM (inactive), the GI50 [14] was 2150 nM (inactive) and the GI50 [15] was 3980 nM (inactive). For the same compound, the GI50 [16] was 2240 nM (inactive), the GI50 [17] was 10100 nM (inactive) and the GI50 [18] was 5380 nM (inactive). For the same compound, the GI50 [19] was 1880 nM (inactive), the GI50 [20] was 8040 nM (inactive) and the GI50 [21] was 1800 nM (inactive). For the same compound, the GI50 [22] was 1190 nM (inactive), the GI50 [23] was 2070 nM (inactive) and the GI50 [24] was 1530 nM (inactive). The GI50 [25] was 3270 nM (inactive), the GI50 [26] was 2890 nM (inactive) and the GI50 [27] was 4420 nM (inactive). The GI50 [28] was 546 nM (active), the GI50 [29] was 2350 nM (inactive) and the GI50 [30] was 11700 nM (inactive). For the same compound, the GI50 [31] was 3110 nM (inactive), the GI50 [32] was 17500 nM (inactive) and the GI50 [33] was 1980 nM (inactive). For the same compound, the GI50 [34] was 982 nM (active), the GI50 [35] was 1710 nM (inactive) and the GI50 [36] was 2490 nM (inactive). The GI50 [37] was 1630 nM (inactive), the GI50 [38] was 10600 nM (inactive) and the GI50 [39] was 1870 nM (inactive). For the same compound, the GI50 [40] was 3850 nM (inactive), the GI50 [41] was 1980 nM (inactive) and the GI50 [42] was 1670 nM (inactive). For the same compound, the GI50 [43] was 2180 nM (inactive), the GI50 [44] was 1340 nM (inactive) and the GI50 [45] was 13600 nM (inactive). The GI50 [46] was 729 nM (active), the GI50 [47] was 1660 nM (inactive) and the GI50 [48] was 1620 nM (inactive). The GI50 [49] was 273 nM (active), the GI50 [50] was 4880 nM (inactive) and the GI50 [51] was 1440 nM (inactive). The GI50 [52] was 2200 nM (inactive), the GI50 [53] was 847 nM (active) and the GI50 [54] was 13000 nM (inactive). For the same compound, the GI50 [55] was 3860 nM (inactive), the GI50 [56] was 1660 nM (inactive) and the GI50 [57] was 1810 nM (inactive).

From ChEMBL document CHEMBL1201862, “PubChem BioAssay data set” (2004)
